Each block holds one compound with its values, some of them ahead of it.
Experiments:
Recombinant PDE4B = molecular target: T1, Recombinant PDE4B (Homo sapiens, UniProt Q07343); test: In vitro PDE4B enzymatic assay (cAMP dynamic 2 kit); format: biochemical; conditions: average of three determinations ± SEM
T1 construct: purchased Sigma Aldrich Co Ltd
Protocol: (§1) Recombinant PDE4B/D was from Sigma Aldrich Co Ltd. A PDE4B/D inhibitors assay was performed using a cAMP dynamic 2 kit. Serial dilutions of isolated compounds with DMSO (100-fold of final concentration) were prepared. Compound solutions were diluted 20-fold with cAMP assay buffer (50 mM Tris, 6 mM MgCl2, pH 7.5). Enzyme solution ([…] of 30 ng/mL or cAMP assay buffer for the control) and […] of isolated compounds (5-fold concentration of final concentration) were added to each well of the 96-well micro assay plate and pre-incubated at room temperature for 10 min. The enzymatic reactions were started by adding […] of cAMP solution (150 nM in cAMP assay buffer) or cAMP assay buffer and incubated at 37 °C for 30 min. The enzymatic reaction was terminated by placing the assay plate on ice. The concentration of cAMP was quantified by measurement of fluorescence intensity using Spectrophotometer Model-SP-2558 (Acton Research, Acton, MA, USA).

Recombinant PDE4D = molecular target: T2, Recombinant PDE4D (Homo sapiens, UniProt Q08499); test: In vitro PDE4D enzymatic assay (cAMP dynamic 2 kit); format: biochemical; conditions: average of three determinations ± SEM
T2 construct: purchased Sigma Aldrich Co Ltd
Protocol: as §1

[1] = test system: NO production on RAW264.7 macrophages; test: Inhibition of NO production in LPS-stimulated RAW264.7 cells (Griess); format: cell-based, murine; conditions: highest concentration 50 µM
Protocol: Cell RAW264.7 (ATCC, Manassas, VA, USA) was cultured for 48 h in DMEM (Dulbecco's Modified Eagle Medium) medium at 37 °C, 5% CO2, and 10% for fetal bovine serum (FBS). Then, the cell fluid was transferred to 96 wells with a density of 2.5 × 10^5 cells/well. Cells were stimulated with 2 μL lipopolysaccharide (LPS 0.1 mg/mL) for 24 h and supplemented with different concentrations of drugs/reagents. Cardamonin is used as a control (+) and DMSO as a control (-). The suspension of the cell was incubated with Griess reagent, NaNO2 at different concentrations to build the calibration curve. Measure the reaction response at λ = 570 nm. The inhibition rate of NO (%) production is determined by the formula: %UC = ([XTB]sample - [[…]) × 100 In which [XTB] is the average NO concentration calculated based on the standard NaNO2. […] Formazan crystalline metabolites are dissolved in dimethyl sulfoxide (DMSO, Sigma-Aldrich, Saint Louis, MO, USA) and measured optical density at λ = 540/720 nm on Infinite F50 device (Tecan, Männedorf, Switzerland).

[2] = test system: NO production in RAW264.7 cells induced by LPS; parameters: method as in PMID 31470215; conditions: read-out: IC50 of inhibition of NO production; cited from earlier work
NO production = test system: NO production; parameters: method as in PMID 22902267; conditions: read-out: IC50 of inhibition of NO production; cited from earlier work

T1 sequence (Q07343 whole entry, species assumed): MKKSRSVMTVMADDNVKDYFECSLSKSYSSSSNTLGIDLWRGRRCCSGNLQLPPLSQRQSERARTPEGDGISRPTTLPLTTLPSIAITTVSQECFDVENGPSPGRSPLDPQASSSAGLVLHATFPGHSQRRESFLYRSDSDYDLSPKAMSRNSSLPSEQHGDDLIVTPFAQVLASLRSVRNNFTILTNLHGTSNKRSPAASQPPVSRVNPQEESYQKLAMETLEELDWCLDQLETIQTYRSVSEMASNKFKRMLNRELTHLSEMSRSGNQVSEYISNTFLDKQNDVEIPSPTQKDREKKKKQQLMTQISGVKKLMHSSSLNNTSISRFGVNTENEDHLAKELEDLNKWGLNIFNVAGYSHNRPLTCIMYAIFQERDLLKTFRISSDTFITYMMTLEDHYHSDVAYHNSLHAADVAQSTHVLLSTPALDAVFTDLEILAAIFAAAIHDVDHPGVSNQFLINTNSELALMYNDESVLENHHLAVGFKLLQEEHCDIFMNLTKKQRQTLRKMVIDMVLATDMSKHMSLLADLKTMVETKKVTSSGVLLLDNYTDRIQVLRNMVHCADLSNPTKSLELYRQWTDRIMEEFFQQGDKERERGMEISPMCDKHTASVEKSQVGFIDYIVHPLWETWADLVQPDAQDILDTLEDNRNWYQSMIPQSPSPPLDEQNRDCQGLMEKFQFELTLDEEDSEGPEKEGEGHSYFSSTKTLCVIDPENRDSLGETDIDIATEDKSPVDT
T2 sequence (Q08499 whole entry, species assumed): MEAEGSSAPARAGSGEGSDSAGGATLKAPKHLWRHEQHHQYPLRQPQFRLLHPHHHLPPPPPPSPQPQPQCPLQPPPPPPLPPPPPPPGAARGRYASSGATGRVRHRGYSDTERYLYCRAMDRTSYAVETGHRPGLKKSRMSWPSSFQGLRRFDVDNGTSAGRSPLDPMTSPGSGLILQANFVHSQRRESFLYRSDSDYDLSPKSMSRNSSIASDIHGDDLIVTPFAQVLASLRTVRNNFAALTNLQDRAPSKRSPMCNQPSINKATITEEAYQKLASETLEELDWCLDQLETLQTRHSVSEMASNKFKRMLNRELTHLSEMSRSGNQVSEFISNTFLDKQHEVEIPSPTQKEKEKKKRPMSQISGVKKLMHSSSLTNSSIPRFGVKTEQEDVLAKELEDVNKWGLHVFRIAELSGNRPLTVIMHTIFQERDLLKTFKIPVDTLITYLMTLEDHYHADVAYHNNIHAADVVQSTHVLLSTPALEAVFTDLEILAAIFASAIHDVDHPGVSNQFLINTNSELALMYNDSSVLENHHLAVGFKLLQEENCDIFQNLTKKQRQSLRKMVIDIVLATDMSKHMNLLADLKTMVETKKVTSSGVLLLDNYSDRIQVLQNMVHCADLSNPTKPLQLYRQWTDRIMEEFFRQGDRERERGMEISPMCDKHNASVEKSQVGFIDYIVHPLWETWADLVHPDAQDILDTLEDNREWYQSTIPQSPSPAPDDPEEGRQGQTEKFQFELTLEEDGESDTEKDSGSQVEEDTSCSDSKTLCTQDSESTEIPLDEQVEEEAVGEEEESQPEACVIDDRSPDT

- IC50 (Recombinant PDE4B; read-out: IC50 of inhibition of PDE4B): 6.56 ± 0.7 µM
- IC50 (Recombinant PDE4D; read-out: IC50 of inhibition of PDE4D): 11.7 ± 1.3 µM
- IC50 [1]: 5.4 ± 0.9 µM
Compound: 5,7,4′-trihydroxyisoflavone 7-O-β-D-apiofuranosyl-(1→6)-β-D-glucopyranoside [D50]

- IC50 of inhibition of PDE4B (Recombinant PDE4B): did not show activity
- IC50 of inhibition of PDE4D (Recombinant PDE4D): did not show activity
Compound: C[C@H]1[C@H](C)CC[C@]2(C(=O)O)CC[C@]3(C)C(=CC[C@@H]4[C@@]5(C)CC[C@H](OC(=O)/C=C/c6ccc(O)cc6)C(C)(C)[C@@H]5CC[C@]43C)[C@H]12 (relative stereo) [D15, trans-3-O-p-hydroxycinnamoyl ursolic acid]

Compound: O=C(/C=C/c1ccc(O)cc1)c1ccc(O)cc1O [D4, Isoliquiritigenin]
- IC50 [2]: 31.2 µM

Compound: COc1ccc([C@H]2COc3cc(O)ccc3C2)c(O)c1 [D9, (3S)-Vestitol]
- IC50 [2]: 16 µM

Compound: Oc1ccc([C@H]2CCc3ccc(O)cc3O2)cc1 [D10, Tupichinol C]
- IC50 [2]: 38.4 µM

Compound: COc1cc(OC)c(-c2coc3c4c(c(OC)cc3c2=O)OC(C)(C)C=C4)cc1OC [D30, Millesianin C]
- IC50 (NO production): 1.37 µM
